Measured values taken from EP1393728A1, “Inverse agonists acting at virus-encoded G protein-coupled receptors” (priority 2002, dated 2004).

Columns and labels:
US28 [1] = target: T1, US28 (Human cytomegalovirus, UniProt P69332); assay: cell-based; parameters: species or system HCMV; details: for % 10^-5 remaining activity on US28 in inositol phosphate assay: at 10^-5; for inverse agonistic effect at US28 relative to the compound of Formula X (statement in words): structure-activity discussion of Table 1; for loss in inverse agonistic potency: relative to the compound of Formula X
T1 sequence (P69332 whole entry): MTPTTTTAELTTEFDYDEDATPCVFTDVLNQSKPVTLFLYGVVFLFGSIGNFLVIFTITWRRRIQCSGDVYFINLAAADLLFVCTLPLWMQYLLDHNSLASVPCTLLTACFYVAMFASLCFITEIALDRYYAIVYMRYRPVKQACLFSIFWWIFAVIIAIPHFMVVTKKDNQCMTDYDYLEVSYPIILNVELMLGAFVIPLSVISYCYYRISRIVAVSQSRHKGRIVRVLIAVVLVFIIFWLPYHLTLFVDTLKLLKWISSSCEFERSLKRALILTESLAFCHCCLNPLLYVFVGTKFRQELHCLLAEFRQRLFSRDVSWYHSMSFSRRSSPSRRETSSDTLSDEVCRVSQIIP
Experimental: (§1) Cell culture, transfection and infection with HCMV. COS-7 cells were grown as previously described in the cited Casarosa reference. Transfection of the COS-7 cells was performed by DEAE-dextran, using 2 µg of DNA of each US28 construct per million cells. Human foreskin fibroblasts (HFFs) were cultured and infected with […] (strain AD169) or a deletion mutant Δ28-HCMV.
(§2) [^3H]-inositol phosphate production. Experiments in COS-7 cells and HFFs were performed as described in the references mentioned in the previous paragraph.
Data analysis. Curve fitting of data was carried out using the program Prism and IC50 values obtained by nonlinear regression analysis (GraphPad Software, Inc., San Diego, USA). Data are expressed as mean ± S.E.
In order to find inverse agonists for US28, a variety of compounds were screened for modulation of US28-mediated constitutive inositol phosphate (InsP) production. This approach led to identify the compound of Formula X as inverse agonist for US28.

US28 [2] = target: T1, US28; assay: biochemical; assay type: binding, HCMV
US28 [3] = assay: cell-based; parameters: species or system HCMV (strain AD169); details: US28-deletion-mutant-HCMV- or mock-infected HFFs
Experimental: as §1, §2

US28 [4] = target: T1, US28; assay: cell-based; parameters: species or system HCMV (strain AD169)
Experimental: as §1, §2

US28 [5] = target: T1, US28; assay type: binding, HCMV; details: in the presence of 10 µM compound of Formula X (725 ± 69 in its absence)
Experimental: (§3) Binding experimants. Labeling of RANTES (Peprotech, Rocky Hill, USA) with [^125I] and binding in COS-7 cells were performed as previously described (Gruijthuijsen et al., J. Virol. 76 (2002) 1328-1338).
Moreover, the present inventors investigated the effect of the compound of Formula X in a saturation binding assay of [^125I]-RANTES.

E^277A-US28 = E^277A-US28 (Human cytomegalovirus, UniProt P69332, E277A); assay type: binding, HCMV; details: E277A-US28, [125I]-RANTES displacement
Chain of E^277A-US28 (P69332 whole entry E277A): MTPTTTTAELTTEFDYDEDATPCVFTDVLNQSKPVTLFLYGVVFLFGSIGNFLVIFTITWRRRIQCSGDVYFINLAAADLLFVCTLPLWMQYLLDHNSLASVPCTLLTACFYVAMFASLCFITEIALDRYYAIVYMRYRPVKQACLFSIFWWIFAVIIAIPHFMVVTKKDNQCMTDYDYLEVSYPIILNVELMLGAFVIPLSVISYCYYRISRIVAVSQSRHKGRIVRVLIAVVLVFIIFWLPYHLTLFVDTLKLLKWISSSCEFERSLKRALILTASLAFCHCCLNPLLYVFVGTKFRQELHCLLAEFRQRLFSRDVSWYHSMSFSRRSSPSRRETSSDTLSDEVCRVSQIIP
Description: (§4) DNA constructs. The cDNA encoding for US28 (see Casarosa et al. in J, Biol. Chem. 276 (2001) 1133-1137) was inserted into the mammalian vector pcDNAS. Δ(2-22)-US28 and the HA-tagged versions of both WT- and Δ(2-22)-US28 were generated by PCR. Single amino acid mutations, as for E^277A- and E^277Q.US28, were introduced using the Altered Sites® II in vitro Mutagenesis System (Promega, Madison, USA), according to manufacturer's protocol. All constructs were verified by dideoxy sequencing.
as §3
(§5) E^277 was therefore mutated into glutamine, to eliminate the charge but retain the hydrogen bonding potential of the side chain, and into alanine, to eliminate both the charge and the hydrogen bonding potential.

E^277Q-US28 = E^277Q-US28 (Human cytomegalovirus, UniProt P69332, E277Q); assay type: binding, HCMV; details: E277Q-US28, [125I]-RANTES displacement
Chain of E^277Q-US28 (P69332 whole entry E277Q): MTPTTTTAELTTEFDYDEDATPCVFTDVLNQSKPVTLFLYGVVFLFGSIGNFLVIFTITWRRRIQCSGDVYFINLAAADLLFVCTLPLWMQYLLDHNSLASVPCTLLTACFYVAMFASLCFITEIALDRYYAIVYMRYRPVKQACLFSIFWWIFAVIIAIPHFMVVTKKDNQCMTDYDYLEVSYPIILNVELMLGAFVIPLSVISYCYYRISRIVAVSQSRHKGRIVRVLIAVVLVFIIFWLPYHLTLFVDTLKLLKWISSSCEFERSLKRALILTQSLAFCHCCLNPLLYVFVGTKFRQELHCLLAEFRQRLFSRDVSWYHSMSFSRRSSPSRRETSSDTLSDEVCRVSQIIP
Description: as §4, §3, §5

transfected cells = assay: AlamarBlue toxicity test; assay type: cell-based; details: AlamarBlue assay, 2 hours incubation, data not shown
Experimental: Toxicity test. The AlamarBlue^TM assay (Serotec, Oxford, UK) was performed following the manufacturer's protocol. Briefly, transfected cells were incubated with the compound of Formula X for 2 hours, followed by the addiction of the AlamarBlue dye.
After 1 hour, the fluorescence was monitored at 560 nm excitation wavelength and 590 nm emission wavelenght in a Victor^2 (PerkinElmer, Boston, USA).

Δ(2-22)-US28 = Δ(2-22)-US28 (Human cytomegalovirus, UniProt P69332); assay: cell-based; parameters: species or system HCMV
Chain of Δ(2-22)-US28 (P69332 22-354, looked up, stated change not applied): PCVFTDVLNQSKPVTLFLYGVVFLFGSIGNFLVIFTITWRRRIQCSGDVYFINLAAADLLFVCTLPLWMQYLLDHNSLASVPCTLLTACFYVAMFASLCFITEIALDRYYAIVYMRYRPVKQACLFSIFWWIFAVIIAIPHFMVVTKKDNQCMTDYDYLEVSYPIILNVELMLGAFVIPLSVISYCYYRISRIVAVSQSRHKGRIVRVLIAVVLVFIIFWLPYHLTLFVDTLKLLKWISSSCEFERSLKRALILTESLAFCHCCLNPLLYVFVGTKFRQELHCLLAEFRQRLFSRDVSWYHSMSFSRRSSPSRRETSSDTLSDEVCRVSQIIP
Description: as §4, §2

HEK-293T cells = assay: MTT test; assay type: cell-based; details: higher concentrations (above 10^-6M), together with the solvent
Description: (§6) In order to test the ability of the compound of Formula X to block viral entry via US28, a reporter gene assay was used. In this assay, HEK-293T cells expressing US28 and CD4 are infected by a luciferase-containing HIV-1 reporter virus. Consequently, the level of cellular luciferase activity is proportional to HIV-1 entry. […] Luciferase activity is increased approximately 20 fold in the presence of US28 when compared to cells expressing CD4 alone (fig. 6A). […] At 10^-6M, the compound of Formula X reduces HIV-1 entry to 41 ± 8 % of control cells. Determination of a complete dose-response curve was not possible due to toxic effects of DM50 and the compound at higher concentrations, as determined by MTT test.

KSHV-encoded ORF74 = target: T2, KSHV-encoded ORF74 (Human herpesvirus 8 type P, UniProt Q98146); assay: ORF74-mediated InsP accumulation (PLC activation) in COS-7 cells; assay type: cell-based; details: concentration as high as 10 µM
T2 construct: expressed in transfected cells; host or cells: COS-7
T2 sequence (Q98146 whole entry): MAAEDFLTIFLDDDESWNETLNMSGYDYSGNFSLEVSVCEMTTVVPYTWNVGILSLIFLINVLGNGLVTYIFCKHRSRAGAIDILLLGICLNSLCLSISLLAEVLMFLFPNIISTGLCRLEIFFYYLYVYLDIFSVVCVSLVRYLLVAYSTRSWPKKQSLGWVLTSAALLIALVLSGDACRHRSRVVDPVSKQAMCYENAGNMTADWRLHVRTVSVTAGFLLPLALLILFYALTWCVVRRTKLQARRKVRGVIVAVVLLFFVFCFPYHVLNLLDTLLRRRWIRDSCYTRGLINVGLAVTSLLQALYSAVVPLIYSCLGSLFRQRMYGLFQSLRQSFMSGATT
Experimental: as §2
(§7) Moreover, other GPCRs were used as controls to ascertain specificity of action of this compound. As previously reported, expression ofRCMV-encoded R33 (Gruijthuijsen et al. J. Virol. 76 (2002), 1328-1338) or KSHV-encoded ORF74 (Rosenkilde et al. 274 (1999), 956-961) also leads to constitutive activation of phospholipase C.

US28 [6] = target: T1, US28; assay: biochemical; assay type: binding, HCMV (strain AD169); details: AD169-infected HFFs
Experimental: as §1, §3

RCMV-encoded R33 = target: T3, RCMV-encoded R33 (Rat cytomegalovirus, UniProt O12000); assay: R33-mediated InsP accumulation (PLC activation) in COS-7 cells; assay type: cell-based; details: concentration as high as 10 µM
T3 construct: expressed in transfected cells; host or cells: COS-7
T3 sequence (O12000 whole entry): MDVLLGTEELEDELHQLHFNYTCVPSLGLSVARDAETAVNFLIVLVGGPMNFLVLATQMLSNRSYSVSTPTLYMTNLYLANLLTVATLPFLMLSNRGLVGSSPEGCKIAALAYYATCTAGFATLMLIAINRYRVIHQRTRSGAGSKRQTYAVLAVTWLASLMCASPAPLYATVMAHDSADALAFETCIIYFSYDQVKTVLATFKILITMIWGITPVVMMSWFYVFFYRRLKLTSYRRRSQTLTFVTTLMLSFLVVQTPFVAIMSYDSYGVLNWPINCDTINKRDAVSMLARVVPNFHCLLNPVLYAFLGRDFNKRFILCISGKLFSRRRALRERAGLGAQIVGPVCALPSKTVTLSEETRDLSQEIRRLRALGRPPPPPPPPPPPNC
Experimental: as §2, §7

[7] = target: T4, human histamine H1 receptor (hH1) (Homo sapiens, UniProt P35367); assay: InsP production in COS-7 cells expressing the histamine H1 receptor; assay type: cell-based; details: 10 µM, COS-7 cells expressing the H1 receptor
T4 construct: expressed in transfected cells; host or cells: COS-7
T4 sequence (P35367 whole entry): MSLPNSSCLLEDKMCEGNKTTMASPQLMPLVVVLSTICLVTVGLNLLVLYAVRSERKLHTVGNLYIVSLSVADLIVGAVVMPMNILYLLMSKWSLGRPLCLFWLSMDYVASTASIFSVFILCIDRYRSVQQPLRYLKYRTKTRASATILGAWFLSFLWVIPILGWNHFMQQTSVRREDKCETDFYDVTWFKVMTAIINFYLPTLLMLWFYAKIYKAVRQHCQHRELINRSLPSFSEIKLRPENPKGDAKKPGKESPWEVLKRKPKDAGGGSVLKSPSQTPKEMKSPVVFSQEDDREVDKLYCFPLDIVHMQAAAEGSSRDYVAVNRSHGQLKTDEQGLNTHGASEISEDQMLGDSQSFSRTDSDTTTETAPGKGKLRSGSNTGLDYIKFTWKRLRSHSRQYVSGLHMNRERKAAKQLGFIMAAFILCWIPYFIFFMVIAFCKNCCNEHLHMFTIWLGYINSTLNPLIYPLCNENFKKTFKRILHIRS
Experimental: as §2
Furthermore, the compound of Formula X was tested on COS-7 cells expressing the human histamine H1 receptor (hH1). Like US28, this GPCR constitutively activates PLC enzymes via Gαq/11 proteins.

[8] = test system: US28-mediated HIV-1 entry; assay: HIV-1 infection assay (luciferase reporter virus) in HEK293-T cells with CD4 and US28; assay type: cell-based; details: Human immunodeficiency virus 1, HEK-293T
Experimental: HIV-1 infection assay. HEK293-T cells were transiently transfected with pcDNA1-US28 and pcDNA1-CD4 using the calcium phosphate method and cultured overnight in 48 well plates. The following day, cells were incubated with different concentrations of the compound of Formula X (dissolved in DMSO) or medium (containing an equal amount of DMSO) for 2 hours before infection with an R5-tropic HIV- 1 virus containing the luciferase reporter gene under the LTR promoter. After overnight incubation, cells were washed twice and cultivated in fresh medium. 3 days after infection, the luciferase activity was quantitated using the Luciferase Assay System (Promega, Madison, USA).
as §6

[9] = IC50 InsP, inhibition of US28-mediated InsP production, COS-7 cells, N.A. = non active

## N#CC(CCCN1CC=C(c2ccc(Cl)cc2)CC1)(c1ccccc1)c1ccccc1 [VUF5664]
US28 [1]
  % 10^-5 remaining activity on US28 in inositol phosphate assay: 83%

## OC1(c2ccc(Cl)cc2)CCN(CCCC(c2ccccc2)c2ccccc2)CC1 [VUF5667]
US28 [1]; [9]
  IC50: 4.2 µM
US28 [1]
  % 10^-5 remaining activity on US28 in inositol phosphate assay: 23%
  inverse agonistic effect at US28 relative to the compound of Formula X (statement in words): does not affect the activity
US28 [2]
  IC50: 5.9 µM

## N#CC(CCCN1CCC(C(N)=O)CC1)(c1ccccc1)c1ccccc1 [VUF5720]
US28 [1]
  % 10^-5 remaining activity on US28 in inositol phosphate assay: 87%

## N#CC(CCCN1CCC(C(=O)O)CC1)(c1ccccc1)c1ccccc1 [VUF5718]
US28 [1]
  % 10^-5 remaining activity on US28 in inositol phosphate assay: 85%

## N#CC(CCCN1CCC(c2ccc(Cl)cc2)CC1)(c1ccccc1)c1ccccc1 [VUF5662]
US28 [1]; [9]
  IC50: 14 µM
US28 [1]
  % 10^-5 remaining activity on US28 in inositol phosphate assay: 60%
  loss in inverse agonistic potency: five- to ten-fold
US28 [2]; [125I]-RANTES binding at US28, COS-7 cells, N.A. = non active, read-out: IC50 binding
  IC50: 10.5 µM

## N#CC1(CCCN2CCC(O)(c3ccc(Cl)cc3)CC2)c2ccccc2CSc2ccccc21 (stereo not shown) [VUF5727]
US28 [1]
  % 10^-5 remaining activity on US28 in inositol phosphate assay: 14%

## O=C(CCCN1CCC(O)(c2ccc(Cl)cc2)CC1)c1ccccc1 [VUF5666]
US28 [1]
  % 10^-5 remaining activity on US28 in inositol phosphate assay: 70%

## N#CC(CCCN1CCN(c2ccc(Cl)cc2)CC1)(c1ccccc1)c1ccccc1 [VUF5658]
US28 [1]
  % 10^-5 remaining activity on US28 in inositol phosphate assay: 88%
  inverse agonistic effect at US28 relative to the compound of Formula X (statement in words): inactive

## CC(C)(C)c1ccc(C(O)CCCN2CCC(C(O)(c3ccccc3)c3ccccc3)CC2)cc1 (stereo not drawn) [Terfenadine, α-[4-(1,1-dimethylethyl)phenyl]-4-(hydroxydiphenylmethyl)-1-piperidinebutanol, reference compound]
US28 [1]
  % 10^-5 remaining activity on US28 in inositol phosphate assay: 15%

## N#CC(CCCN1CCC(O)(c2ccc(Cl)cc2)CC1)(c1ccccc1)c1ccccc1 [Formula X]
US28 [1]; COS-7 cells
  kind of inverse agonism at US28 (inhibition of signaling complete): full inverse agonist
US28 [1]; [9]
  IC50: 3.5 µM
US28 [1]
  % 10^-5 remaining activity on US28 in inositol phosphate assay: 10%
US28 [1]; pIC50 of US28 mediated InsP production, COS-7 cells, WT-US28
  IC50: 3.47 µM
US28 [3]
  effect on InsP signaling: does not affect
US28 [4]
  IC50: 0.776 µM
US28 [5]
  Bmax value of [125I]-RANTES: 380 ± 36 fmol/mg protein
E^277A-US28
  affinity compared to WT-US28: markedly reduced
E^277Q-US28
  affinity compared to WT-US28: markedly reduced
Transfected cells
  cellular toxicity: did not show cellular toxicity
Δ(2-22)-US28
  IC50: 4.47 µM
Δ(2-22)-US28; Δ(2-22)-US28, COS-7 cells
  inhibition of constitutive signaling: totally inhibits
HEK-293T cells
  toxicity by MTT test: toxic effects
KSHV-encoded ORF74
  modulation of ORF74-mediated PLC activation: does not modulate
US28 [6]; IC50 of [125I]-RANTES displacement
  IC50: 0.708 µM
US28 [6]; pIC50 of [125I]-RANTES displacement
  IC50: 0.708 µM
US28 [2]
  IC50: 8.4 µM
RCMV-encoded R33
  modulation of R33-mediated PLC activation: does not modulate
[7]
  basal or histamine-induced production of InsP: does not alter
[8]; read-out: HIV-1 entry, % of control cells
  activity at 1 µM: 41 ± 8%
[8]; read-out: inhibition of viral entry
  inhibition at 1 µM: 60%

## O=C(NCC(CCCN1CCC(O)(c2ccc(Cl)cc2)CC1)(c1ccccc1)c1ccccc1)NC1CCNCC1 [VUF5717]
US28 [1]
  % 10^-5 remaining activity on US28 in inositol phosphate assay: 100%

## N#CC1(CCCN2CCC(O)(c3ccc(Cl)cc3)CC2)c2ccccc2CCc2ccccc21 [VUF5713]
US28 [1]; [9]
  IC50: 5.3 µM
US28 [1]
  % 10^-5 remaining activity on US28 in inositol phosphate assay: -5%
  inverse agonistic effect at US28 relative to the compound of Formula X (statement in words): comparable potencies
US28 [2]
  IC50: 9.6 µM

## NCC(CCCN1CCC(O)(c2ccc(Cl)cc2)CC1)(c1ccccc1)c1ccccc1 [VUF5728]
US28 [1]
  % 10^-5 remaining activity on US28 in inositol phosphate assay: 10%

## N#CC(CCCN1CCC(O)(c2ccccc2)CC1)(c1ccccc1)c1ccccc1 [VUF5660]
US28 [1]; [9]
  IC50: 29 µM
US28 [1]
  % 10^-5 remaining activity on US28 in inositol phosphate assay: 60%
  loss in inverse agonistic potency: five- to ten-fold
US28 [2]
  IC50: 35 µM

## N#CC(O)(CCCN1CCC(O)(c2ccc(Cl)cc2)CC1)c1ccccc1 (stereo not shown) [VUF5715]
US28 [1]
  inverse agonistic effect at US28 relative to the compound of Formula X (statement in words): loss of effect

## OC1(c2ccc(Cl)cc2)CCN(CCCOc2ccccc2)CC1 [VUF5714]
US28 [1]
  % 10^-5 remaining activity on US28 in inositol phosphate assay: 77%
